Consider 9 molecules from PubChem BioAssay (NCI).

SMILES strings stand for the structures.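 The compound was tested at five concentrations on cells cultured in 96-well plates, with a 48-hour exposure period. The concentration for 50% growth inhibition is given as GI50. TGI: concentration producing complete growth inhibition.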 *1 amine or outer side, *2 acyl side, *3 side chain or, on linkers, in order; H or OH if unused. Where a SMILES comes first, the peptide text is derived from it. Bridges are numbered along the chain shown (N, C = ends). [ ]: non-standard residue; d: D form. The star is where a group is joined. X19 = O=C([C@H](N[*:1])c1ccc(O[C@H]2O[C@@H](CO)[C@@H](O)[C@@H](O)[C@H]2O[C@@H]2O[C@H](CO)[C@H](O)[C@H](O)[C@@H]2O)cc1)[*:2]; X18 = NC(=O)[C@@H](O[*:3])[C@H](N[*:1])C(=O)[*:2]; X20 = O=C([C@H](N[*:1])c1ccc(O)c(Cl)c1)[*:2]; d(aThr) = C[C@@H](O)[C@@H](N)C(=O)O; dHpg = N[C@@H](C(=O)O)c1ccc(O)cc1; X17 = CC(C)C/C=C/C=C/C(=O)*; dOrn = NCCC[C@@H](N)C(=O)O

Assay in all cases: inhibition of tumour cell growth, NCI panel, 48 h
In assay [1] the test system is MCF7 breast.
Assay [2] concerns T-47D breast.
Assay [3] concerns UACC-62 melanoma.
The test system of assay [4] is SK-MEL-5 melanoma.
The subject of assay [5] is OVCAR-8 ovarian.
For assay [6], the system named is HT29 colon.
Assay [7] has as its system HCC-2998 colon.
Assay [8] deals with K-562 leukemia.
Assay [9] has as its system MALME-3M melanoma.
Assay [10] deals with HCT-116 colon.

Regarding `C[C@@H](Oc1cc(NS(=O)(=O)N2CCC2)nc(SCc2cccc(F)c2F)n1)[C@@H](O)CO`, the GI50 in assay [1], in assay [2], in assay [3], in [4], in assay [5] and in assay [6] was more than 100 µM in each case. Besides, the GI50 in assay [7], in [8], in assay [9] and in assay [10] was more than 100 µM in each case. Besides, the TGI in assay [1], in [2], in assay [3], in assay [4], in assay [5] and in assay [6] was more than 100 µM throughout. For the same molecule, the TGI in assay [7], in assay [8], in assay [9] and in [10] was more than 100 µM each time.
For the molecule `N#Cc1nn(C2OC(COC(=O)c3ccccc3)C(OC(=O)c3ccccc3)C2OC(=O)c2ccccc2)c2nc[nH]c(=O)c12` (centres undefined), the TGI was more than 100 µM in assay [1]; more than 100 µM in assay [2]; more than 100 µM in assay [3]; 65.6 µM in [4]; more than 100 µM in assay [5]; more than 100 µM in assay [6]. Also, the TGI in assay [7] is more than 100 µM; in [8] it was more than 100 µM; in assay [9], 90.4 µM; in assay [10], more than 100 µM.
Turning to `Cc1cccc2c1NC(=O)[C@@]21[C@H](C(=O)c2ccccc2)[C@]2(C(=O)Nc3ccccc32)[C@H]2CCCN21`, the GI50 was 14.3 µM in [1]; 20.9 µM in assay [2]; 12.5 µM in [3]; 84.7 µM in [4]; 25.2 µM in assay [5]; 37.3 µM in [6]. The GI50 in [7] is 49.5 µM; in [8], 33.1 µM; in [9] it was 31.4 µM; in [10], 15.2 µM. Moreover, the TGI in assay [1] is more than 100 µM; in [2] it was more than 100 µM; in assay [3], more than 100 µM; in assay [4], more than 100 µM; in [5] it was 92.3 µM; in assay [6], more than 100 µM. Besides, the TGI was more than 100 µM in [7], more than 100 µM in assay [8], more than 100 µM in assay [9] and 46.5 µM in [10].
Consider `O=C1/C(=C/c2ccccc2)CN(CCC(=O)N2C/C(=C\c3ccccc3)C(=O)/C(=C/c3ccccc3)C2)C/C1=C\c1ccccc1`, for which the GI50 was 0.182 µM in [1]; 13.5 µM in [2]; 7.19 µM in assay [3]; 14.1 µM in assay [4]; 5.4 µM in assay [5]; 0.635 µM in assay [6]. Besides, the GI50 in assay [7] is 1.71 µM; in [8], 0.494 µM; in assay [9], 22.3 µM; in [10], 0.346 µM. Moreover, the TGI in assay [1] was 26.3 µM; in assay [2], 75.3 µM; in assay [3], 33.9 µM; in assay [4] it was 47.2 µM; in assay [5], more than 100 µM; in assay [6] it was more than 55.9 µM. The TGI in [7] was 8 µM; in assay [8], more than 100 µM; in [9] it was 64.3 µM; in assay [10] it was 4.17 µM.
With `CC(C)C/C=C/C=C/C(=O)N[C@@H](CC(N)=O)C(=O)N[C@@H]1C(=O)N[C@H](c2ccc(O)cc2)C(=O)N[C@H](CCCN)C(=O)N[C@H]([C@@H](C)O)C(=O)N[C@H](c2ccc(O)cc2)C(=O)N[C@H](c2ccc(O)cc2)C(=O)N[C@H]([C@H](C)O)C(=O)N[C@H](Cc2ccccc2)C(=O)N[C@H](CCCN)C(=O)N[C@H](c2ccc(O[C@H]3O[C@@H](CO)[C@@H](O)[C@@H](O)[C@H]3O[C@@H]3O[C@H](CO)[C@H](O)[C@H](O)[C@@H]3O)cc2)C(=O)N[C@H]([C@H](C)O)C(=O)N[C@H](c2ccc(O)cc2)C(=O)NCC(=O)N[C@H](CC(C)C)C(=O)N[C@H](C)C(=O)N[C@H](c2ccc(O)c(Cl)c2)C(=O)O[C@@H]1C(N)=O` (X17-N[X18][dHpg][dOrn][d(aThr)][dHpg][dHpg][dT][dF][dOrn][X19][dT][dHpg]G[dL][dA][X20]; ester 2-C), the GI50 in assay [1] was 31.9 µM; in assay [2] it was 34.6 µM; in assay [3], 21.2 µM; in assay [4], 22.1 µM; in [5], 46.8 µM; in [6], 33.2 µM. Also, the GI50 is 57.2 µM in [7], 36.3 µM in [8], 29.7 µM in assay [9] and 32.9 µM in assay [10]. Besides, the TGI in assay [1] is 94.7 µM; in assay [2] it was 98.9 µM; in assay [3] it was 45.1 µM; in assay [4], 44.6 µM; in assay [5], more than 100 µM; in assay [6] it was more than 100 µM. For the same molecule, the TGI in assay [7] was more than 100 µM; in [8], more than 100 µM; in assay [9], 65.5 µM; in assay [10], more than 100 µM.
For `O=C1CCC2=C3C4CCCCC4C(=O)C4CCCC(OC2C1)C34` (centres undefined), the GI50 in [1] was 1.21 µM; in assay [2], 3.58 µM; in assay [3], 1.69 µM; in assay [4], 0.729 µM; in assay [5], 0.397 µM; in assay [6], 8.28 µM. Besides, the GI50 was 3.41 µM in assay [7], 0.493 µM in assay [8], 0.418 µM in [9] and 0.316 µM in assay [10]. Also, the TGI was more than 100 µM in [1]; more than 100 µM in [2]; 4.32 µM in [3]; 2.35 µM in assay [4]; 23.7 µM in assay [5]; more than 100 µM in assay [6]. Besides, the TGI in assay [7] was 15.7 µM; in assay [9] it was 1.98 µM; in [10], more than 31.1 µM.
Consider `CC(=O)O[C@H]1C(=O)[C@@]2(C)[C@H]([C@H](OC(=O)c3ccccc3)[C@]3(O)C[C@H](OC(=O)[C@H](O)[C@@H](NC(=O)CC(C)C)c4ccccc4)C(C)=C1C3(C)C)[C@]1(OC(C)=O)CO[C@@H]1C[C@@H]2O`, for which the TGI in assay [1] was more than 10 µM; in assay [2] it was more than 10 µM; in assay [3], more than 10 µM; in assay [4], more than 10 µM; in assay [5], more than 3.24 µM; in assay [6] it was 0.0296 µM. Also, the TGI is 0.0636 µM in [7], more than 10 µM in assay [8], more than 10 µM in [9] and more than 10 µM in assay [10].
Regarding `C/C=C1\C(=O)O[C@@H]2C1C[C@@H]1O[C@H]2[C@H](C)CCC/C(C)=C/CC[C@@]1(C)O` (some centres undefined), the GI50 was 2.33 µM in [1]; 42.7 µM in [2]; 7.16 µM in assay [3]; 3.03 µM in assay [4]; 2.52 µM in assay [5]; 25.4 µM in assay [6]. Moreover, the GI50 was 2.95 µM in assay [7], 9.72 µM in [8], 3.47 µM in assay [9] and 2.81 µM in assay [10]. The TGI is 6.1 µM in assay [1]; more than 100 µM in assay [2]; 20.7 µM in [3]; 9.4 µM in [4]; 6.76 µM in assay [5]; more than 100 µM in assay [6]. Besides, the TGI in assay [7] was 6.33 µM; in assay [8] it was more than 100 µM; in assay [9], 18.5 µM; in assay [10], 10.1 µM.
Consider `CN(C1=NS(=O)(=O)N=C(N(C)c2ccccc2)O1)c1ccccc1`, for which the TGI in assay [1] worked out at 38.9 µM; in [2] it was 45.5 µM; in [3], 28 µM; in [4] it was 25.5 µM; in assay [5], 33.3 µM; in [6], 54.3 µM. Besides, the TGI came out at 36.7 µM in assay [7], 50.4 µM in assay [8], 49.7 µM in [9] and 27.6 µM in [10].
